# Measurements from US20160002180A1, “ANTIVIRAL COMPOUNDS” (priority 2013, published 2016).
# Experiments:
# Assay in all cases: microbe, parasite or virus in culture
# Assay type in all cases: cell-based
# [1] = test system: HCVpp GT-1a (pseudotyped HCV GT1a particles, E1 and E2 envelope proteins of GT1a H77 strain); settings: Hepatitis C virus, 72 h, read-out: HCVpp GT-1a (EC50, μM)
# [2] = test system: VSVpp (pseudotyped VSV G particles); settings: Vesicular stomatitis virus, 72 h, read-out: VSVpp (EC50, μM)
# [3] = test system: HCVpp GT-1b (pseudotyped HCV GT1b particles, E1 and E2 envelope proteins of GT1b Con1 strain); settings: Hepatitis C virus, 72 h, read-out: HCVpp GT-1b (EC50, μM)
SMILES,EC50 [1],EC50 [2],EC50 [3]
"COCc1n[nH]c(Nc2cc(Cl)cc(Cl)c2)n1 [Compound 5, (3,5-Dichloro-phenyl)-(5-methoxymethyl-2H-[1,2,4]triazol-3-yl)-amine]",4.13 µM,100 µM,24.2 µM
"Clc1cc(Cl)cc(Nc2ncn(Cc3ccccc3)n2)c1 [Compound 23, (1-Benzyl-1H-[1,2,4]triazol-3-yl)-(3,5-dichloro-phenyl)-amine]",28.9 µM,46.5 µM,53 µM
"Clc1cc(Nc2ncn[nH]2)cc(Cl)c1Br [Compound 18, (4-Bromo-3,5-dichloro-phenyl)-(2H-[1,2,4]triazol-3-yl)-amine]",0.252 µM,22.4 µM,2.52 µM
"COc1n[nH]c(Nc2cc(Cl)c(Br)c(Cl)c2)n1 [Compound 11, (4-Bromo-3,5-dichloro-phenyl)-(5-methoxy-2H-[1,2,4]triazol-3-yl)-amine]",2.1 µM,12.7 µM,7.23 µM
"N#Cc1c(Cl)cc(Nc2ncn[nH]2)cc1Cl [Compound 20, 2,6-Dichloro-4-(2H-[1,2,4]triazol-3-ylamino)-benzonitrile]",0.121 µM,100 µM,1.66 µM
"CN(C)c1nc(Nc2cc(Cl)cc(Cl)c2)n[nH]1 [Compound 15, N^3-(3,5-Dichloro-phenyl)-N^5,N^5-dimethyl-1H-[1,2,4]triazole-3,5-diamine]",24.8 µM,100 µM,–
"Fc1c(Cl)cc(Nc2n[nH]c(N3CCOCC3)n2)cc1Cl [Compound 31, (3,5-Dichloro-4-fluoro-phenyl)-(5-morpholin-4-yl-1H-[1,2,4]triazol-3-yl)-amine]",25.8 µM,29.9 µM,–
"Nc1cccc(Nc2ncn(Cc3ccccc3)n2)c1 [Compound 29, N-(1-Benzyl-1H-[1,2,4]triazol-3-yl)-benzene-1,3-diamine]",95 µM,100 µM,87.2 µM
"CN(C)c1nc(Nc2cc(Cl)c(Br)c(Cl)c2)n[nH]1 [Compound 16, N^3-(4-Bromo-3,5-dichloro-phenyl)-N^5,N^5-dimethyl-1H-[1,2,4]triazole-3,5-diamine]",1.58 µM,43.1 µM,–
"Fc1c(Cl)cc(Nc2ncnn2Cc2ccccc2)cc1Cl [Compound 26, (2-Benzyl-2H-[1,2,4]triazol-3-yl)-(3,5-dichloro-4-fluoro-phenyl)-amine]",16.2 µM,17.5 µM,27.1 µM
"Clc1cc(Cl)cc(Nc2n[nH]c(-c3ccccc3)n2)c1 [Compound 2, (3,5-Dichloro-phenyl)-(5-phenyl-1H-[1,2,4]triazol-3-yl)-amine]",26.7 µM,30.1 µM,27.5 µM
"Fc1n[nH]c(Nc2cc(Cl)cc(Cl)c2)n1 [Compound 4, (3,5-Dichloro-phenyl)-(5-fluoro-2H-[1,2,4]triazol-3-yl)-amine]",28.7 µM,30.9 µM,30.1 µM
"CS(=O)(=O)c1n[nH]c(Nc2cc(Cl)cc(Cl)c2)n1 [Compound 13, (3,5-Dichloro-phenyl)-(5-methanesulfonyl-2H-[1,2,4]triazol-3-yl)-amine]",100 µM,100 µM,–
"Clc1cc(Cl)cc(Nc2nc[nH]n2)c1 [Compound 25, (3,5-Dichloro-phenyl)-(1H-[1,2,4]triazol-3-yl)-amine]",1.06 µM,97 µM,5.17 µM
"Clc1cc(Nc2nc[nH]n2)cc(Cl)n1 [Compound 30, (2,6-Dichloro-pyridin-4-yl)-(1H-[1,2,4]triazol-3-yl)-amine]",1.06 µM,100 µM,–
"CNc1nc(Nc2cc(Cl)cc(Cl)c2)n[nH]1 [Compound 19, N^3-(3,5-Dichloro-phenyl)-N^5-methyl-1H-[1,2,4]triazole-3,5-diamine]",3.41 µM,100 µM,–
"Clc1cc(Cl)cc(Nc2n[nH]c(Cc3ccccc3)n2)c1 [Compound 34, (5-Benzyl-1H-[1,2,4]triazol-3-yl)-(3,5-dichloro-phenyl)-amine]",0.785 µM,38.9 µM,13.5 µM

SMILES,EC50 [1],EC50 [2],EC50 [3]
"COc1n[nH]c(Nc2cc(Cl)cc(Cl)c2)n1 [Compound 8, (3,5-Dichloro-phenyl)-(5-methoxy-2H-[1,2,4]triazol-3-yl)-amine]",15.9 µM,100 µM,52.6 µM
"COCc1n[nH]c(Nc2cc(Cl)nc(Cl)c2)n1 [Compound 6, (2,6-Dichloro-pyridin-4-yl)-(5-methoxymethyl-2H-[1,2,4]triazol-3-yl)-amine]",4.59 µM,100 µM,35.5 µM
"Clc1cc(Cl)cc(Nc2nc(Br)n[nH]2)c1 [Compound 7, (5-Bromo-2H-[1,2,4]triazol-3-yl)-(3,5-dichloro-phenyl)-amine]",16.5 µM,28.2 µM,20.8 µM
"CC(C)Cc1nc(Nc2cc(Cl)cc(Cl)c2)n[nH]1 [Compound 33, (3,5-Dichloro-phenyl)-(5-isobutyl-1H-[1,2,4]triazol-3-yl)-amine]",1.26 µM,100 µM,61.7 µM
"COc1n[nH]c(Nc2cc(Cl)nc(Cl)c2)n1 [Compound 9, (2,6-Dichloro-pyridin-4-yl)-(5-methoxy-2H-[1,2,4]triazol-3-yl)-amine]",13.2 µM,98 µM,45.3 µM
"Clc1cc(Cl)cc(Nc2ncnn2Cc2ccccc2)c1 [Compound 24, (2-Benzyl-2H-[1,2,4]triazol-3-yl)-(3,5-dichloro-phenyl)-amine]",27.1 µM,34.9 µM,32.5 µM
"CS(=O)(=O)c1n[nH]c(Nc2cc(Cl)c(Br)c(Cl)c2)n1 [Compound 14, (4-Bromo-3,5-dichloro-phenyl)-(5-methanesulfonyl-2H-[1,2,4]triazol-3-yl)-amine]",100 µM,100 µM,–
"NCc1nc(Nc2cc(Cl)cc(Cl)c2)n[nH]1 [Compound 3, (5-Aminomethyl-1H-[1,2,4]triazol-3-yl)-(3,5-dichloro-phenyl)-amine]",–,100 µM,100 µM
"FC(F)(F)c1nc(Nc2cc(Cl)cc(Cl)c2)n[nH]1 [Compound 22, (3,5-Dichloro-phenyl)-(5-trifluoromethyl-1H-[1,2,4]triazol-3-yl)-amine]",5.5 µM,6.7 µM,5.63 µM
"Fc1c(Cl)cc(Nc2ncn(Cc3ccccc3)n2)cc1Cl [Compound 27, (1-Benzyl-1H-[1,2,4]triazol-3-yl)-(3,5-dichloro-4-fluoro-phenyl)-amine]",6.13 µM,9.11 µM,8.91 µM
"Clc1cc(Nc2ncn[nH]2)cc(Cl)c1Cl [Compound 17, (2H-[1,2,4]Triazol-3-yl)-(3,4,5-trichloro-phenyl)-amine]",0.392 µM,28.2 µM,–
"Fc1c(Cl)cc(Nc2nc[nH]n2)cc1Cl [Compound 28, (3,5-Dichloro-4-fluoro-phenyl)-(1H-[1,2,4]triazol-3-yl)-amine]",0.477 µM,84.1 µM,3.77 µM
"CC(C)c1nc(Nc2cc(Cl)cc(Cl)c2)n[nH]1 [Compound 32, (3,5-Dichloro-phenyl)-(5-isopropyl-1H-[1,2,4]triazol-3-yl)-amine]",22.1 µM,33.8 µM,–
"CNc1nc(Nc2ccc(C#N)c(C(F)(F)F)c2)n[nH]1 [Compound 21, 4-(5-Methylamino-1H-[1,2,4]triazol-3-ylamino)-2-trifluoromethyl-benzonitrile]",1.26 µM,24.9 µM,5.01 µM
"Clc1cc(Cl)cc(Nc2nc(Cl)n[nH]2)c1 [Compound 12, (5-Chloro-2H-[1,2,4]triazol-3-yl)-(3,5-dichloro-phenyl)-amine]",13.8 µM,14 µM,–
"Cc1nc(Nc2cc(Cl)cc(Cl)c2)n[nH]1 [Compound 1, (3,5-Dichloro-phenyl)-(5-methyl-1H-[1,2,4]triazol-3-yl)-amine]",1.99 µM,100 µM,6.25 µM
"COc1n[nH]c(Nc2ccc(C#N)c(C(F)(F)F)c2)n1 [Compound 10, 4-(5-Methoxy-2H-[1,2,4]triazol-3-ylamino)-2-trifluoromethyl-benzonitrile]",7.53 µM,8.3 µM,7.83 µM
